Laboratory results as given in patent publication US9920038B2, “Methyl oxazole orexin receptor antagonists” (MERCK SHARP & DOHME CORP., priority 2014, dated 2018).

Columns and labels:
human orexin-2 receptor = human orexin-2 receptor (Homo sapiens (Human), UniProt O43614); assay: hOX2R FLIPR Ca2+ flux assay; assay type: cell-based; settings: CHO cells expressing human orexin-2 receptor; agonist 70 pM Ala-6,12 orexin-A
Description: In a typical experiment the OX1 and OX2 receptor antagonistic activity of the compounds of the present invention was determined in accordance with the following experimental method. For intracellular calcium measurements, Chinese hamster ovary (CHO) cells expressing the rat orexin-1 receptor or the human orexin-2 receptor, are grown in Iscove's modified DMEM containing 2 mM L-glutamine, […], 1% hypoxanthine-thymidine supplement, 100 U/ml penicillin, 100 μg/ml streptomycin and 10% heat-inactivated fetal calf serum (FCS). The cells are seeded at 20,000 cells/well into Becton-Dickinson black 384-well clear bottom sterile plates coated with poly-D-lysine. All reagents were from GIBCO-Invitrogen Corp. The seeded plates are incubated overnight at 37° C. and 5% CO2. Ala-6,12 human orexin-A as the agonist is prepared as a 1 mM stock solution in 1% bovine serum albumin (BSA) and diluted in assay buffer (HBSS containing 20 mM HEPES, 0.1% BSA and 2.5 mM probenecid, pH7.4) for use in the assay at a final concentration of 70 pM. Test compounds are prepared as 10 mM stock solution in DMSO, then diluted in 384-well plates, first in DMSO, then assay buffer. On the day of the assay, cells are washed 3 times with 100 μl assay buffer and then incubated for 60 min (37° C., 5% CO2) in 60 μl assay buffer containing […] Fluo-4AM ester, 0.02% pluronic acid, and 1% BSA. The dye loading solution is then aspirated and cells are washed 3 times with 100 μl assay buffer. 30 μl of that same buffer is left in each well. Within the Fluorescent Imaging Plate Reader (FLIPR, Molecular Devices), test compounds are added to the plate in a volume of 25 μl, incubated for 5 min and finally 25 μl of agonist is added. Fluorescence is measured for each well at 1 second intervals for 5 minutes and the height of each fluorescence peak is compared to the height of the fluorescence peak induced by 70 pM Ala-6,12 orexin-A with buffer in place of antagonist. For each antagonist, IC50 value (the concentration of compound needed to inhibit 50% of the agonist response) is determined. Alternatively, compound potency can be assessed by a radioligand binding assay (described in Bergman et. al. Bioorg. Med. Chem. Lett. 2008, 18, 1425-1430) in which the inhibition constant (Ki) is determined in membranes prepared from CHO cells expressing either the OX1 or OX2 receptor. The intrinsic orexin receptor antagonist activity of a compound which may be used in the present invention may be determined by these assays.

hOX1R = hOX1R (Homo sapiens, UniProt O43613); assay: hOX1R FLIPR Ca2+ flux assay; assay type: cell-based; settings: CHO cells expressing orexin-1 receptor; agonist 70 pM Ala-6,12 orexin-A; read-out: hOX1R FLIPR IC50

human orexin-2 receptor, sequence (O43614 whole entry): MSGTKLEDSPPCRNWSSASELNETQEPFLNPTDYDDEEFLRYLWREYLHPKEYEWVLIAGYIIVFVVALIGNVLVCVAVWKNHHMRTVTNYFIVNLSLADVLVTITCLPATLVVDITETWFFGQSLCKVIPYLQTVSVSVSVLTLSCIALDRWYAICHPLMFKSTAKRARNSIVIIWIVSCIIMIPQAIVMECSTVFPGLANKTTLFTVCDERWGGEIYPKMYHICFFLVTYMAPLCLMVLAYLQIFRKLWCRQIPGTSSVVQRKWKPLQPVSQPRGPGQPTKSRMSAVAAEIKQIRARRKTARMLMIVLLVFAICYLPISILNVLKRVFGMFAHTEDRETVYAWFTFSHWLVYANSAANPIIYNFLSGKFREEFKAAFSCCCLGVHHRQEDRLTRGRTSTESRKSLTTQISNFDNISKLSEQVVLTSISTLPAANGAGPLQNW

| SMILES | IC50 (human orexin-2 receptor) | IC50 (hOX1R) |
| --- | --- | --- |
| Cc1oc(C[C@H]2CCCCN2C(=O)c2cccnc2OC(C)C)nc1C(C)(C)O [Example 6, (R)-(2-((4-(2-hydroxypropan-2-yl)-5-methyloxazol-2-yl)methyl)piperidin-1-yl)(2-isopropoxypyridin-3-yl)methanone] | 36 nM | 223 nM |
| Cc1oc(C[C@H]2CCCCN2C(=O)c2ccccc2-n2cccn2)nc1C(C)(C)O [Example 10, (R)-(2-(1H-pyrazol-1-yl)phenyl)(2-((4-(2-hydroxypropan-2-yl)-5-methyloxazol-2-yl)methyl)piperidin-1-yl)methanone] | 51 nM | 129 nM |
| Cc1oc(C[C@H]2CCCCN2C(=O)c2ncccc2-n2nccn2)nc1C(C)(C)O [Example 21, (R)-(3-(2H-1,2,3-triazol-2-yl)pyridin-2-yl)(2-((4-(2-hydroxypropan-2-yl)-5-methyloxazol-2-yl)methyl)piperidin-1-yl)methanone] | 225 nM | 1850 nM |
| Cc1oc(C[C@H]2CCCCN2C(=O)c2ccccc2-c2ncccn2)nc1C(C)(C)O [Example 31, (R)-(2-((4-(2-hydroxypropan-2-yl)-5-methyloxazol-2-yl)methyl)piperidin-1-yl)(2-(pyrimidin-2-yl)phenyl)methanone] | 47 nM | 76 nM |
| Cc1oc(C[C@H]2CCCCN2C(=O)c2ccc(F)cc2-n2nccn2)nc1C(C)(C)O [Example 4, (R)-(4-fluoro-2-(2H-1,2,3-triazol-2-yl)phenyl)(2-((4-(2-hydroxypropan-2-yl)-5-methyloxazol-2-yl)methyl)piperidin-1-yl)methanone] | 25 nM | 39 nM |
| Cc1oc(C[C@H]2CCCCN2C(=O)c2ccccc2C2CCC2)nc1C(C)(C)O [Example 24, (R)-(2-cyclobutylphenyl)(2-((4-(2-hydroxypropan-2-yl)-5-methyloxazol-2-yl)methyl)piperidin-1-yl)methanone] | 114 nM | 184 nM |
| CCOc1ccccc1C(=O)N1CCCC[C@@H]1Cc1nc(C(C)(C)O)c(C)o1 [Example 8, (R)-(2-ethoxyphenyl)(2-((4-(2-hydroxypropan-2-yl)-5-methyloxazol-2-yl)methyl)piperidin-1-yl)methanone] | 28 nM | 256 nM |
| Cc1oc(C[C@H]2CCCCN2C(=O)c2ccccc2CC(F)F)nc1C(C)(C)O [Example 12, (R)-(2-(2,2-difluoroethyl)phenyl)(2-((4-(2-hydroxypropan-2-yl)-5-methyloxazol-2-yl)methyl)piperidin-1-yl)methanone] | 98 nM | 2180 nM |
| COc1ccc(C(=O)N2CCCC[C@@H]2Cc2nc(C(C)(C)O)c(C)o2)c(C2CC2)n1 [Example 19, (R)-(2-cyclopropyl-6-methoxypyridin-3-yl)(2-((4-(2-hydroxypropan-2-yl)-5-methyloxazol-2-yl)methyl)piperidin-1-yl)methanone] | 503 nM | 2310 nM |
| Cc1oc(C[C@H]2CCCCN2C(=O)c2ccccc2OCC(F)F)nc1C(C)(C)O [Example 20, (R)-(2-(2,2-difluoroethoxy)phenyl)(2-((4-(2-hydroxypropan-2-yl)-5-methyloxazol-2-yl)methyl)piperidin-1-yl)methanone] | 112 nM | 690 nM |
| Cc1oc(C[C@H]2CCCCN2C(=O)c2ccccc2OCC(F)(F)F)nc1C(C)(C)O [Example 17, (R)-(2-((4-(2-hydroxypropan-2-yl)-5-methyloxazol-2-yl)methyl)piperidin-1-yl)(2-(2,2,2-trifluoroethoxy)phenyl)methanone] | 99 nM | 952 nM |
| Cc1oc(C[C@H]2CCCCN2C(=O)c2ccccc2OC(F)F)nc1C(C)(C)O [Example 15, (R)-(2-(difluoromethoxy)phenyl)(2-((4-(2-hydroxypropan-2-yl)-5-methyloxazol-2-yl)methyl)piperidin-1-yl)methanone] | 98 nM | 1090 nM |
| Cc1oc(C[C@H]2CCCCN2C(=O)c2ccccc2-n2ncnn2)nc1C(C)(C)O [Example 28, (R)-(2-(2H-tetrazol-2-yl)phenyl)(2-((4-(2-hydroxypropan-2-yl)-5-methyloxazol-2-yl)methyl)piperidin-1-yl)methanone] | 152 nM | 486 nM |
| CCCc1ccccc1C(=O)N1CCCC[C@@H]1Cc1nc(C(C)(C)O)c(C)o1 [Example 29, (R)-(2-((4-(2-hydroxypropan-2-yl)-5-methyloxazol-2-yl)methyl)piperidin-1-yl)(2-propylphenyl)methanone] | 106 nM | 794 nM |
| Cc1oc(C[C@H]2CCCCN2C(=O)c2nccnc2N2CCCC2)nc1C(C)(C)O [Example 23, (R)-(2-((4-(2-hydroxypropan-2-yl)-5-methyloxazol-2-yl)methyl)piperidin-1-yl)(3-(pyrrolidin-1-yl)pyrazin-2-yl)methanone] | > 10000 nM | > 10000 nM |
| Cc1oc(C[C@H]2CCCCN2C(=O)c2cccnc2-c2ccccc2)nc1C(C)(C)O [Example 14, (R)-(2-((4-(2-hydroxypropan-2-yl)-5-methyloxazol-2-yl)methyl)piperidin-1-yl)(2-phenylpyridin-3-yl)methanone] | 38 nM | 80 nM |
| Cc1oc(C[C@H]2CCCCN2C(=O)c2nccnc2-c2ccccn2)nc1C(C)(C)O [Example 22, (R)-(2-((4-(2-hydroxypropan-2-yl)-5-methyloxazol-2-yl)methyl)piperidin-1-yl)(3-(pyridin-2-yl)pyrazin-2-yl)methanone] | 558 nM | 2930 nM |
| Cc1oc(C[C@H]2CCCCN2C(=O)c2ccccc2N2CCCC2)nc1C(C)(C)O [Example 7, (R)-(2-((4-(2-hydroxypropan-2-yl)-5-methyloxazol-2-yl)methyl)piperidin-1-yl)(2-(pyrrolidin-1-yl)phenyl)methanone] | 51 nM | 67 nM |
| Cc1oc(C[C@H]2CCCCN2C(=O)c2ncccc2-c2ccccc2)nc1C(C)(C)O [Example 25, (R)-(2-((4-(2-hydroxypropan-2-yl)-5-methyloxazol-2-yl)methyl)piperidin-1-yl)(3-phenylpyridin-2-yl)methanone] | 127 nM | 240 nM |
| Cc1oc(C[C@H]2CCCCN2C(=O)c2ccccc2C2CC2(F)F)nc1C(C)(C)O (stereo partly drawn) [Example 27, (2-(2,2-difluorocyclopropyl)phenyl)((R)-2-((4-(2-hydroxypropan-2-yl)-5-methyloxazol-2-yl)methyl)piperidin-1-yl)methanone] | 38 nM | 473 nM |
| Cc1oc(C[C@H]2CCCCN2C(=O)c2cccnc2OCC(F)F)nc1C(C)(C)O [Example 16, (R)-(2-(2,2-difluoroethoxy)pyridin-3-yl)(2-((4-(2-hydroxypropan-2-yl)-5-methyloxazol-2-yl)methyl)piperidin-1-yl)methanone] | 49 nM | 373 nM |
| Cc1oc(C[C@H]2CCCCN2C(=O)c2cccnc2CC(F)(F)F)nc1C(C)(C)O [Example 11, (R)-(2-((4-(2-hydroxypropan-2-yl)-5-methyloxazol-2-yl)methyl)piperidin-1-yl)(2-(2,2,2-trifluoroethyl)pyridin-3-yl)methanone] | – | > 10000 nM |
| Cc1oc(C[C@H]2CCCCN2C(=O)c2nccnc2-n2cccn2)nc1C(C)(C)O [Example 26, (R)-(3-(1H-pyrazol-1-yl)pyrazin-2-yl)(2-((4-(2-hydroxypropan-2-yl)-5-methyloxazol-2-yl)methyl)piperidin-1-yl)methanone] | 186 nM | 1410 nM |
